Source: US12581252B2, “Substituted pyrrolo[3,4-b]pyridines as PI3K-α inhibitors” (Relay Therapeutics, Inc., priority 2020, dated 2026)

Molecular target: H1047R PIK3CA enzyme (Homo sapiens, UniProt P42336, H1047R)
Assay: ADP-Glo Biochemical PIK3CA Kinase Assay

H1047R PIK3CA enzyme, sequence (P42336 whole entry H1047R): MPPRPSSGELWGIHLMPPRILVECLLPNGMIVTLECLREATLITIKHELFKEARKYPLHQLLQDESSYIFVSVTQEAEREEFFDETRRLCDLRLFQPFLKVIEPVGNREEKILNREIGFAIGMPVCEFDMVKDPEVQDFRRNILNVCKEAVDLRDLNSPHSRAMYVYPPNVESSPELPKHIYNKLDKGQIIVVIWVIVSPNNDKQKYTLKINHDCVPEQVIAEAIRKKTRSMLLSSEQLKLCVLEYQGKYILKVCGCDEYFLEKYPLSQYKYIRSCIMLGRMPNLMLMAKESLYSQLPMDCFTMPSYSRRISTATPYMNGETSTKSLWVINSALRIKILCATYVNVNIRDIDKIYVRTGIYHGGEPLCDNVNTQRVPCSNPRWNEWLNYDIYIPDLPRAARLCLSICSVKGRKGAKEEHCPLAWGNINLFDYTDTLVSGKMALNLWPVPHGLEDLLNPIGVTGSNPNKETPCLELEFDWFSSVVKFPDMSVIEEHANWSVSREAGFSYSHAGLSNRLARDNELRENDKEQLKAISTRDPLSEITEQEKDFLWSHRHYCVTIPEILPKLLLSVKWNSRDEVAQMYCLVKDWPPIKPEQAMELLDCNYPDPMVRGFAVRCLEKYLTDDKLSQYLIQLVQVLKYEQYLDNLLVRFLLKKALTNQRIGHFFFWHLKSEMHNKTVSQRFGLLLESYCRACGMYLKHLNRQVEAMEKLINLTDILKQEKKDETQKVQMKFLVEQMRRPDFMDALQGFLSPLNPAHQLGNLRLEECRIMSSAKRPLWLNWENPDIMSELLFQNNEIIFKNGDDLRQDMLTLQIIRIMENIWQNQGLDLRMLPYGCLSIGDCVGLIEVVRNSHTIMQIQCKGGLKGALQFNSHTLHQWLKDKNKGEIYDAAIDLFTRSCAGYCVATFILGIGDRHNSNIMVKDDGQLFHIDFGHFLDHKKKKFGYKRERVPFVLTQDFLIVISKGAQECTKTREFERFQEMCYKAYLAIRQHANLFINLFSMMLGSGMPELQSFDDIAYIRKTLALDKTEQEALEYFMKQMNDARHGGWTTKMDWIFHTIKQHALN
H1047R PIK3CA enzyme, sequence (P27986 whole entry partner): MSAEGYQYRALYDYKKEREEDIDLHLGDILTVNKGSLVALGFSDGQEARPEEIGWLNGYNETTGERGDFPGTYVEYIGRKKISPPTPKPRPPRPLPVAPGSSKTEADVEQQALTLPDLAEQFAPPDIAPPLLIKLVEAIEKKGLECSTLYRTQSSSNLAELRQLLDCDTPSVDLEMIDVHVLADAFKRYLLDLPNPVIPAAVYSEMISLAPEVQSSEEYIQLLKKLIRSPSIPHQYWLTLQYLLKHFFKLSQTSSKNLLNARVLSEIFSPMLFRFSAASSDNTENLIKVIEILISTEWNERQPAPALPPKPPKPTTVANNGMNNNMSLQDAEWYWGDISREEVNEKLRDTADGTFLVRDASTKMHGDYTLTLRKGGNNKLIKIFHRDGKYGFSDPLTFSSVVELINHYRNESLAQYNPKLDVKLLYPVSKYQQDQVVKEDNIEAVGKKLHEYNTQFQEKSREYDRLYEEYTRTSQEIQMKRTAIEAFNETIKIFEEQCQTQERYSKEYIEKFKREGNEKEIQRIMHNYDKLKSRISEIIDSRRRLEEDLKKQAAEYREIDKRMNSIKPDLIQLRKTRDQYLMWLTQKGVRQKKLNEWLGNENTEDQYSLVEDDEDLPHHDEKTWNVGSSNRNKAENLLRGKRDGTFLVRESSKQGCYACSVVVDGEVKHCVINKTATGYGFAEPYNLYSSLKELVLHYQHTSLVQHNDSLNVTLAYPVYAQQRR

Structure (SMILES) | IC50
CC(C)(CC(F)(F)F)C(=O)Nc1cc(Br)cc2c1C(c1cc(F)ccc1Cl)NC2=O (stereo not shown) [Compound I-1619] | 10000 to 100000 nM
N#Cc1cccc(C(=O)Nc2cc(Br)cc3c2C(c2cc(F)ccc2Cl)NC3=O)c1 (stereo not shown) [Compound I-522] | 1000 to 10000 nM
Cc1ccccc1C1NC(=O)c2cccc(NC(=O)N3CCc4c(F)cc(F)cc43)c21 (stereo not shown) [Compound I-104] | 100 to 500 nM
N#Cc1cc2nccn2cc1-c1cc(NC(=O)c2cc(F)cc(C(F)(F)F)c2)c2c(c1)C(=O)N[C@H]2c1cc(F)ccc1Cl [Compound I-1586] | ≤ 100 nM
N#CCCn1cc(-c2cc(NC(=O)c3cc(F)cc(C(F)(F)F)c3)c3c(c2)C(=O)NC3c2cc(F)ccc2Cl)cn1 (stereo not shown) [Compound I-1397] | ≤ 100 nM
O=C1NCc2c(NC(=O)c3coc4ccc(Cl)cc34)cccc21 [Compound I-402] | 10000 to 100000 nM
O=C(Nc1cccc2c1[C@H](C1CCCC[C@@H]1O)NC2=O)c1cc(F)cc(C(F)(F)F)c1 (single isomer, unassigned) [Compound I-2110] | 10000 to 100000 nM
Cc1ccccc1C1NC(=O)c2cccc(NC(=O)c3csc4cncnc34)c21 (stereo not shown) [Compound I-63] | 10000 to 100000 nM
CC(C)(O)c1cc(NC(=O)c2cc(F)cc(C(F)(F)F)c2)c2c(n1)C(=O)NC2c1cc(F)ccc1Cl (stereo not shown) [Compound I-242] | 100 to 500 nM
Cc1ccccc1[C@@H]1NC(=O)c2nccc(NC(=O)N3C[C@H](C)c4ccccc43)c21 (single isomer, unassigned) [Compound I-300] | 100 to 500 nM
O=C(Nc1cc(Br)cc2c1[C@@H](c1cccc(F)c1F)NC2=O)c1cc(F)cc(C(F)(F)F)c1 [Compound I-683] | 1000 to 10000 nM
CC(C)c1cc(N)nn1C(=O)Nc1cccc2c1C(c1cc(F)ccc1Cl)NC2=O (stereo not shown) [Compound I-2466] | 10000 to 100000 nM
O=C1NC(c2cc(F)ccc2Cl)c2c1cccc2-c1cc2c(Cl)cc(F)cc2[nH]1 (stereo not shown) [Compound I-1317] | 100 to 500 nM
O=C(Nc1cc(C2COC2)cc2c1[C@@H](c1cc(F)ccc1Cl)NC2=O)c1cc(F)cc(C(F)(F)F)c1 [Compound I-589] | ≤ 100 nM
O=C(Nc1cc(-c2ccc3c(c2)OCCCO3)cc2c1C(c1cc(F)ccc1Cl)NC2=O)c1cc(F)cc(C(F)(F)F)c1 (stereo not shown) [Compound I-851] | ≤ 100 nM
CC[C@H](CC(=O)Nc1cccc2c1[C@H](c1cc(F)ccc1Cl)NC2=O)[C@@H](C)C(F)(F)F (single isomer, unassigned) [Compound I-2335] | 1000 to 10000 nM
O=C(Nc1cc(-c2cn(C(F)F)cn2)cc2c1[C@@H](c1cc(F)ccc1Cl)NC2=O)c1cc(F)cc(C(F)(F)F)c1 [Compound I-1918] | 1000 to 10000 nM
O=C1N[C@@H](c2cc(F)ccc2Cl)c2c(NC(=O)N3C[C@@H](O)c4cc(F)ccc43)cc(-n3ccccc3=O)cc21 (single isomer, unassigned) [Compound I-2351] | 100 to 500 nM
[2H]c1nc2cnc(-c3cc(NC(=O)c4cc(F)cc(C(F)(F)F)c4)c4c(c3)C(=O)N[C@@H]4c3cc(F)ccc3Cl)cn2n1 [Compound I-2068] | 1000 to 10000 nM
O=C(Nc1cc(CN2CCNCC2)cc2c1C(c1cc(F)ccc1Cl)NC2=O)c1cc(F)cc(C(F)(F)F)c1 (stereo not shown) [Compound I-350] | ≤ 100 nM
O=C(Nc1cc(-c2ccc(=O)n(C3CC3)c2)nc2c1C(c1cc(F)ccc1Cl)NC2=O)c1cc(F)cc(C(F)(F)F)c1 (stereo not shown) [Compound I-647] | ≤ 100 nM
CCOc1cc(C(=O)Nc2cc(Br)cc3c2C(c2cc(F)ccc2Cl)NC3=O)ccc1F (stereo not shown) [Compound I-556] | 1000 to 10000 nM

Structure (SMILES) | IC50
N#Cc1ccccc1C1NC(=O)c2cccc(NC(=O)c3nsc4ccccc34)c21 (stereo not shown) [Compound I-197] | 1000 to 10000 nM
O=C(Nc1cc(C2CNC2)cc2c1C(c1cc(F)ccc1Cl)NC2=O)c1cc(F)cc(C(F)(F)F)c1 (stereo not shown) [Compound I-654] | ≤ 100 nM
Cc1ccccc1[C@@H]1NC(=O)c2nccc(NC(=O)N3CCc4ccc(F)cc43)c21 [Compound I-246] | 100 to 500 nM
CC(C)(O)c1cc(NC(=O)N2C[C@H](O)c3ccccc32)c2c(c1)C(=O)N[C@H]2c1cc(F)ccc1Cl (single isomer, unassigned) [Compound I-2123] | 500 to 1000 nM
O=C(Nc1cccc2c1C(CN1CCCCC1)NC2=O)c1cc(F)cc(C(F)(F)F)c1 (stereo not shown) [Compound I-1678] | 10000 to 100000 nM
O=C1N[C@@H](c2cc(F)ccc2Cl)c2c(NC(=O)[C@H]3C[C@H](O)C[C@@H](C(F)(F)F)C3)cc(Br)cc21 (single isomer, unassigned) [Compound I-2151] | 1000 to 10000 nM
O=C(Nc1cccc2c1[C@@H](CC1CCCCC1)NC2=O)c1cc(F)cc(C(F)(F)F)c1 [Compound I-2057] | 1000 to 10000 nM
CNC(=O)c1cc(NC(=O)c2ccccc2)c2c(c1)C(=O)NC2c1cc(F)ccc1Cl (stereo not shown) [Compound I-1548] | 10000 to 100000 nM
N#Cc1cc(NC(=O)N2C[C@](O)(C(F)(F)F)c3cc(F)ccc32)c2c(c1)C(=O)N[C@H]2c1cc(F)ccc1Cl (single isomer, unassigned) [Compound I-2561] | 1000 to 10000 nM
O=C1NC(c2cc(F)ccc2Cl)c2c(Nc3cc4ccccn4n3)cc(-c3ccc4ncnn4c3)cc21 (stereo not shown) [Compound I-1679] | 10000 to 100000 nM
CNC(=O)c1cc(NC(=O)c2csc3ccccc23)c2c(c1)C(=O)N[C@@H]2c1ccccc1C [Compound I-75, (R)-7-(Benzo[b]thiophene-3-carboxamido)-N-methyl-3-oxo-1-(o-tolyl)isoindoline-5-carboxamide] | 1000 to 10000 nM
O=C(Nc1cc(Br)cc2c1C(c1cc(F)ccc1Cl)NC2=O)c1ccc(F)c(C(F)(F)F)c1 (stereo not shown) [Compound I-566] | 500 to 1000 nM
O=C1N[C@H](c2cc(F)ccc2Cl)c2c(NC(=O)N3C[C@H](O)c4cc(F)c(F)cc43)cccc21 (single isomer, unassigned) [Compound I-2292] | 10000 to 100000 nM
O=C(Nc1cc(-c2cnn3ccnc3c2)cc2c1C(c1cc(F)ccc1Cl)NC2=O)c1cc(F)cc(C(F)(F)F)c1 (stereo not shown) [Compound I-1504] | ≤ 100 nM
O=C1NC(c2cc(F)ccc2Cl)c2c(NC(=O)C3CCCO3)cc(-c3ccc4ncnn4c3)cc21 (stereo not shown) [Compound I-1831] | 10000 to 100000 nM
O=C(Nc1cnc(N2CC(F)(F)C2)c2c1C(c1cc(F)ccc1Cl)NC2=O)c1cc(F)cc(C(F)(F)F)c1 (stereo not shown) [Compound I-320] | 100 to 500 nM
[2H]C1([2H])N(C(=O)Nc2cccc3c2[C@H](c2cc(F)ccc2Cl)NC3=O)c2ccc(F)cc2[C@@]1(O)C(F)(F)F (single isomer, unassigned) [Compound I-2593] | 1000 to 10000 nM
O=C(Nc1cc(-c2ccn3nc(C4CC4)nc3c2)cc2c1C(c1cc(F)ccc1Cl)NC2=O)c1cc(F)cc(C(F)(F)F)c1 (stereo not shown) [Compound I-1651] | ≤ 100 nM
CCn1cc(-c2cc(NC(=O)c3cc(F)cc(C(F)(F)F)c3)c3c(n2)C(=O)N[C@@H]3c2cc(F)ccc2Cl)ccc1=O [Compound I-614] | 1000 to 10000 nM
O=C1NC(c2cc(F)ccc2Cl)c2c(NC(=O)N3CCn4c(nnc4C(F)(F)F)C3)cccc21 (stereo not shown) [Compound I-2111] | 10000 to 100000 nM
CC(C)Oc1cc(NC(=O)c2cc(F)cc(C(F)(F)F)c2)c2c(c1)C(=O)NC2c1cc(F)ccc1Cl (stereo not shown) [Compound I-1253] | ≤ 100 nM
O=C1CCc2cc(F)cc(C(=O)Nc3cc(Br)cc4c3C(c3cc(F)ccc3Cl)NC4=O)c2N1 (stereo not shown) [Compound I-1546] | 10000 to 100000 nM

Structure (SMILES) | IC50
CNc1cc(C2NC(=O)c3cccc(NC(=O)c4cc(F)cc(C(F)(F)F)c4)c32)ccn1 (stereo not shown) [Compound I-874] | 10000 to 100000 nM
O=C1N[C@@H](c2cc(F)ccc2Cl)c2c(N[C@H]3COCc4ccccc43)cc(Br)cc21 (racemic) [Compound I-1893] | 10000 to 100000 nM
O=C1NC(c2ccccc2)c2c(NC(=O)c3csc4ccccc34)cccc21 (stereo not shown) [Compound I-8] | 100 to 500 nM
N#Cc1cc(NC(=O)c2cc(F)cc(Cl)c2)c2c(c1)C(=O)NC2c1cc(F)ccc1Cl (stereo not shown) [Compound I-531] | ≤ 100 nM
O=C(Nc1cc(Br)cc2c1C(c1cc(F)ccc1Cl)NC2=O)c1ccc(F)c(OC(F)F)c1 (stereo not shown) [Compound I-558] | 1000 to 10000 nM
Cc1ccccc1C1NC(=O)c2cccc(NC(=O)c3coc4c(F)cc(F)cc34)c21 (stereo not shown) [Compound I-58] | 100 to 500 nM
O=C(Nc1cc(Br)cc2c1C(c1cc(F)ccc1Cl)NC2=O)c1cc(F)cc(OC(F)(F)F)c1 (stereo not shown) [Compound I-831] | 100 to 500 nM
CC(=O)c1cc(NC(=O)c2nsc3ccccc23)c2c(c1)C(=O)NC2c1cc(F)ccc1Cl (stereo not shown) [Compound I-135] | 500 to 1000 nM
O=C(Nc1cccc2c1C(C1CCCC(O)C1)NC2=O)c1cc(F)cc(C(F)(F)F)c1 (mixture of isomers) [Compound I-2224] | 10000 to 100000 nM
O=C(Nc1cc(-n2cncc2F)cc2c1C(c1cc(F)ccc1Cl)NC2=O)c1cc(F)cc(C(F)(F)F)c1 (stereo not shown) [Compound I-1128] | ≤ 100 nM
NS(=O)(=O)c1cc(-c2ccc3ncnn3c2)cc2c1C(c1cc(F)ccc1Cl)NC2=O (stereo not shown) [Compound I-1970] | 10000 to 100000 nM
O=C1N[C@H](c2cc(F)ccc2Cl)c2c(NC(=O)N3C[C@H](O)c4cccc(F)c43)cccc21 (single isomer, unassigned) [Compound I-2207] | 1000 to 10000 nM
O=C1NC(c2cc(F)ccc2Cl)c2c(NC(=O)C3CCCCC3)cc(-c3ccc4ncnn4c3)cc21 (stereo not shown) [Compound I-1549] | 1000 to 10000 nM
CC(C)(CN)n1cc(-c2cc(NC(=O)N3C[C@](O)(C(F)(F)F)c4cc(F)ccc43)c3c(c2)C(=O)N[C@@H]3c2cc(F)ccc2Cl)cn1 (single isomer, unassigned) [Compound I-2650] | 500 to 1000 nM
O=C1NC(c2cc(F)ccc2Cl)c2c(NC(=O)[C@H]3C[C@@H](O)c4ccccc43)cc(Br)cc21 (mixture of isomers) [Compound I-1942] | 10000 to 100000 nM
O=C1N[C@H](c2cc(F)ccc2Cl)c2c(N[C@H]3CCCNC3)cc(-c3ccc4ncnn4c3)cc21 (racemic) [Compound I-2023] | 10000 to 100000 nM
Cc1ccccc1C1NC(=O)c2cccc(NC(=O)c3cccc(C(F)(F)F)c3)c21 (stereo not shown) [Compound I-435] | 1000 to 10000 nM
O=C1N[C@@H](c2cc(F)ccc2Cl)c2c(NC(=O)[C@H]3C[C@H](O)C[C@@H](C(F)(F)F)C3)cccc21 (single isomer, unassigned) [Compound I-2177] | 1000 to 10000 nM
CC(C)(C(=O)O)c1cc(NC(=O)c2cc(F)cc(C(F)(F)F)c2)c2c(c1)C(=O)NC2c1cc(F)ccc1Cl (stereo not shown) [Compound I-427] | 100 to 500 nM
O=C(Nc1ccnc2c1C(c1ccccc1Cl)NC2=O)c1ccnc2c1CCC2 (stereo not shown) [Compound I-240] | 10000 to 100000 nM
